Values quoted from earlier work as cited in patent US7842683B2, “Neurotherapeutic compositions and method” (Revaax Pharmaceuticals, LLC, priority 1999, dated 2010).

What was measured:
[1] = approximately 7-10 mg/kg/day, intravenous as TIMENTIN; cited from earlier work
gram-negative meningitis = settings: 241 of 260; 4 g every 8 hrs for 2-3 weeks; cited from earlier work

Compound	adverse reactions or contraindications [1]	patients with satisfactory response to antibiotic therapy (gram-negative meningitis)
O=C(O)[C@H]1/C(=C/CO)O[C@@H]2CC(=O)N21 [CLAV, Clavulanic acid]	no reported adverse reactions or contraindications	–
CO[C@@]1(NC(=O)C(C(=O)O)c2ccc(O)cc2)C(=O)N2C(C(=O)O)=C(CSc3nnnn3C)CO[C@@H]21 (stereo partly drawn) [Mox, 7-β-[2-carboxy-2-(4-hydroxyphenyl)acetamido]-7α-methoxy-3-[[(1-methyl-1H-tetrazol-5-yl)thio]methyl]-1-oxa-1-dethia-3-cephem-4-carboxylic acid]	–	93%
